This passage reports IC50, Activity and survival results from ChEMBL document CHEMBL4304741, “Modification and Biological Evaluation of a Series of 1,5-Diaryl-1,2,4-triazole Compounds as Novel Agents against Pancreatic Cancer Metastasis through Targeting Myoferlin” (J Med Chem, 2019).

The test system of data set [1] is PANC-1. Description: Antimigratory activity against human PANC1 cells measured after 18 hrs in presence of mitomycin C using crystal violet staining by inverted microscopy-based transwell assay. Format: functional, cell-based. The settings on record: PANC-1, 18 h.
The subject of data set [2] is PANC-1. Description: Antiinvasive activity against human PANC1 cells measured after 18 hrs in presence of mitomycin C using crystal violet staining by inverted microscopy-based matrigel coated transwell assay. It is filed as functional, cell-based. The settings on record: PANC-1, 18 h.
Data set [3] has as its target T1, Myoferlin (Homo sapiens, UniProt Q9NZM1). Description: Binding affinity to recombinant human GST-tagged MYOF C2 domain (3445 to 3912 residues) expressed in Escherichia coli BL21 (DE3) at 0.3125 to 10 uM by surface plasmon resonance analysis.
Data set [4] has as its target T1, Myoferlin. Briefly: Binding affinity to recombinant human GST-tagged MYOF C2 domain (3445 to 3912 residues) expressed in Escherichia coli BL21 (DE3) at 0.03125 to 0.5 uM by surface plasmon resonance analysis. In general terms: SPR reads the build-up and loss of mass on a sensor chip optically.
In data set [5] the test system is PANC-1. Briefly: Antimigratory activity against MYOF-knockout human PANC1 cells measured after 18 hrs in presence of mitomycin C using crystal violet staining by inverted microscopy-based transwell assay. It is filed as functional, cell-based.
In data set [6] the test system is PANC-1. Description: Antimetastatic activity against human PANC1 cells harboring luciferase reporter gene xenografted in Balb/c nude mouse assessed as mouse survival at 25 mg/kg/day, ip (reference value: 25%). Format: functional. The settings on record: PANC-1, ip.
In data set [7] the test system is PANC-1. Description: Antimetastatic activity against human PANC1 cells harboring luciferase reporter gene xenografted in Balb/c nude mouse at 25 mg/kg/day, ip measured every 10 days by bioluminescence imaging analysis. Format: functional, organism-based.
A short description of data set [8]: Toxicity in Balb/c nude mouse xenografted with PANC1 cells assessed as body weight loss at 25 mg/kg/day, ip. It is filed as organism-based. The settings on record: in vivo.
A short description of data set [9]: Toxicity in Balb/c nude mouse xenografted with PANC1 cells assessed as pathological changes in heart at 25 mg/kg/day, ip by H and E staining-based microscopic analysis. Format: organism-based. Particulars: in vivo.
The nature of data set [10]: Toxicity in Balb/c nude mouse xenografted with PANC1 cells assessed as pathological changes in lung at 25 mg/kg/day, ip by H and E staining-based microscopic analysis. Particulars: in vivo. Format: organism-based.
A short description of data set [11]: Toxicity in Balb/c nude mouse xenografted with PANC1 cells assessed as pathological changes in liver at 25 mg/kg/day, ip by H and E staining-based microscopic analysis. The settings on record: in vivo. Format: organism-based.
The nature of data set [12]: Toxicity in Balb/c nude mouse xenografted with PANC1 cells assessed as pathological changes in spleen at 25 mg/kg/day, ip by H and E staining-based microscopic analysis. Format: organism-based. The settings on record: in vivo.
Data set [13] can be described thus: Toxicity in Balb/c nude mouse xenografted with PANC1 cells assessed as pathological changes in kidney at 25 mg/kg/day, ip by H and E staining-based microscopic analysis. Format: organism-based. Particulars: in vivo.

The structures appear in SMILES notation. pIC50: −log10 of the molar value. Activity calls are given as the source filed them. The calls are words filed in the database; no cut-off is given here.

T1 sequence (Q9NZM1 whole entry, the tested form may be a part): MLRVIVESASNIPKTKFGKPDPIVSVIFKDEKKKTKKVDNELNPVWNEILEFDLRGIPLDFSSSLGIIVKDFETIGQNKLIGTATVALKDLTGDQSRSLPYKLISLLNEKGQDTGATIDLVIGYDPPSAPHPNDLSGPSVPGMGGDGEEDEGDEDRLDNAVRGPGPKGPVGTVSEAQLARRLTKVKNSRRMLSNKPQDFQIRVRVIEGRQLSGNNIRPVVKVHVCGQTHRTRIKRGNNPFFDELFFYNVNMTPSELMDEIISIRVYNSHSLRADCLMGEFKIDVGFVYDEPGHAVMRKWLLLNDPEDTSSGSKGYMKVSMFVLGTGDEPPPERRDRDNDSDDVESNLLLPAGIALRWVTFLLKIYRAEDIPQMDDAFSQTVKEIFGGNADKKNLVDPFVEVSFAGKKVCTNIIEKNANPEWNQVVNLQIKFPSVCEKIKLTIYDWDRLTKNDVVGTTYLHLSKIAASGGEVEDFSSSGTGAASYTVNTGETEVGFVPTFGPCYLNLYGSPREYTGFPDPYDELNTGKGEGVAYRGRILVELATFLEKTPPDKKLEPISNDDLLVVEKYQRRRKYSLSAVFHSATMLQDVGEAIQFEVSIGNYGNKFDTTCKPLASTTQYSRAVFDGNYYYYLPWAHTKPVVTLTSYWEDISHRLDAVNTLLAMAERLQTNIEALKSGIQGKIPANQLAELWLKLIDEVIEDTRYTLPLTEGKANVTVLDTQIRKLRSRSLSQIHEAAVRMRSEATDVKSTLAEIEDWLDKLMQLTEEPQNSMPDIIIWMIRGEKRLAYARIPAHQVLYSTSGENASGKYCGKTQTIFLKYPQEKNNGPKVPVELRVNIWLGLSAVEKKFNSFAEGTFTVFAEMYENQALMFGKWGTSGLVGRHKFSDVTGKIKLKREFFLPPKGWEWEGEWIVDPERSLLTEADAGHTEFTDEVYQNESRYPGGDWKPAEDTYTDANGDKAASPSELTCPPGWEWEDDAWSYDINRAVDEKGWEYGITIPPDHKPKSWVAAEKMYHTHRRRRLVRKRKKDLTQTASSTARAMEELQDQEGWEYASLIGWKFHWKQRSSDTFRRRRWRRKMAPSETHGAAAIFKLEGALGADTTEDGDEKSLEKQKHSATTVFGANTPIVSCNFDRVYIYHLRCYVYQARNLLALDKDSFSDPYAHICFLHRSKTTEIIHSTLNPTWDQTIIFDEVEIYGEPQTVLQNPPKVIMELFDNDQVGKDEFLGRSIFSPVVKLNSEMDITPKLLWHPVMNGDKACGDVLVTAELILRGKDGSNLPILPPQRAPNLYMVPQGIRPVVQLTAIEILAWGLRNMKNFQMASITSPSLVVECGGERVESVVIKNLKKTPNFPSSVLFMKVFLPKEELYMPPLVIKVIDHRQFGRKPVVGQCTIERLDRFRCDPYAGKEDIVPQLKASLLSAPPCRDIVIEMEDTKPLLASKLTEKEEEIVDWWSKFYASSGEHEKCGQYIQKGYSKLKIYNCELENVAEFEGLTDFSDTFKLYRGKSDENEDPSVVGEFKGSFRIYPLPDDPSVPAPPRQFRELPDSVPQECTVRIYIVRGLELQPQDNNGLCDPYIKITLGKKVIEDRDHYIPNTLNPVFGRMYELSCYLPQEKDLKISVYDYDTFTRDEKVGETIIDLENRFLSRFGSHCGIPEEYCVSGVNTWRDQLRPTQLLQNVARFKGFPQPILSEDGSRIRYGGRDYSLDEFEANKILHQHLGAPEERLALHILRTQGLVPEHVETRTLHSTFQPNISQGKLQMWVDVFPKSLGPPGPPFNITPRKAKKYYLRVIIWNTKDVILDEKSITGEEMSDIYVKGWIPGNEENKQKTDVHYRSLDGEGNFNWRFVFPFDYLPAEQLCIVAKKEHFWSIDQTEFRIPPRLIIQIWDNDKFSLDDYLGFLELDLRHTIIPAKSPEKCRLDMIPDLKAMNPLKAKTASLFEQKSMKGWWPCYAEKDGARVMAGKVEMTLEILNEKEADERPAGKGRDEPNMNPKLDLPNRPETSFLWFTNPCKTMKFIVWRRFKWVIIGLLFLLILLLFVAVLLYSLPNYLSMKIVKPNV

For `CCc1nc(-c2cccc(C(=O)NCCCCc3ccccc3)c2)n(-c2ccc(OC)cc2)n1`, in the data set with PANC-1 [1], the pIC50 (commonly −log10 of the IC50, conventionally taken in molar units) was 6.38. Turning to `COc1ccc(-c2nc(C)nn2-c2cccc(C(=O)NCCc3ccc(Br)cc3)c2)cc1`, the results for the negative-log IC50 (pIC50) in the data set with PANC-1 [1] and with PANC-1 [2] were 5.49 and 5.53, respectively. `COc1ccc(-c2ncnn2-c2cccc(C(=O)NCCCCc3ccccc3)c2)cc1`: the negative logarithm of the IC50 (pIC50) in the data set with PANC-1 [1] is less than 4.70. Regarding `COc1ccc(-c2nc(C)nn2-c2cccc(C(=O)NCCCc3ccc(Cl)cc3)c2)cc1`, the negative-log IC50 (pIC50) in the data set on PANC-1 [1] was less than 4.70. The same measure, in the same setting: in the case of `COc1ccc(-c2nc(C)nn2-c2cccc(C(=O)NCCOCc3ccccc3)c2)cc1` it was 5.03. As for `COc1ccccc1-c1nc(C)nn1-c1cccc(C(=O)NCCc2ccc(Br)cc2)c1`, the pIC50 is 5.10 in the data set with PANC-1 [1] and 4.96 in the data set on PANC-1 [2]. In the case of `CCc1nc(-c2ccc(OC(F)F)cc2)n(-c2cccc(C(=O)NCCCCc3ccccc3)c2)n1`, the negative logarithm of the IC50 (pIC50) with PANC-1 [1] was 6.08. As to `CCc1nc(-c2cncc(C(=O)NCCCCc3ccccc3)c2)n(-c2ccc(OC)cc2)n1`, in the data set with PANC-1 [1], the pIC50 is 5.87. In the case of `CCCCc1nc(-c2ccc(OC)cc2)n(-c2cccc(C(=O)NCCCCc3ccccc3)c2)n1`, the pIC50 in the data set on PANC-1 [1] is 4.77.

For the compound `COc1ccccc1-c1nc(C)nn1-c1cccc(C(=O)NCCc2ccc(Cl)cc2)c1`, the values for the pIC50 with PANC-1 [1] and in the data set with PANC-1 [2] were less than 4.70 and 4.56, respectively. With `CCc1nc(-c2cnc(OC)cn2)n(-c2cccc(C(=O)NCCCCc3ccccc3)c2)n1`, the negative logarithm of the IC50 (pIC50) in the data set on PANC-1 [1] was 6.51.

Take `COc1ccc(-c2nc(C3CC3)nn2-c2cccc(C(=O)NCCCCc3ccccc3)c2)cc1`: in the data set with PANC-1 [1], the pIC50 was 5.11. For the compound `COc1ccc(-c2nc(C)nn2-c2cccc(C(=O)NCCCCc3ccccc3)c2)cc1`, the pIC50 in the data set with PANC-1 [1] is 6.20. Moreover, the result on Myoferlin [3] was Active. As for `CCc1nc(-c2ccc(OC)cc2)n(-c2cccc(C(=O)NCCCCc3ccccc3)c2)n1`, the pIC50 with PANC-1 [1] is 6.85; in the data set on PANC-1 [2] it was 6.74. For the same compound, the outcome on Myoferlin [4] was Active. Consider `COc1ccc(-c2nc(C)nn2-c2cccc(C(=O)NCCc3ccccn3)c2)cc1`, for which, in the data set with PANC-1 [1], the pIC50 is less than 4.70.

With `COc1ccc(-c2nc(C)nn2-c2cccc(C(=O)NCCc3ccc(Cl)cc3)c2)cc1`, the pIC50 with PANC-1 [1] is 5.36; in the data set with PANC-1 [2], 5.01. Consider `COc1ccc(-c2nc(C)nn2-c2cccc(C(=O)NCCCCc3ccc(Br)cc3)c2)cc1`, for which the pIC50 in the data set with PANC-1 [1] is 5.52. As to `COc1ccc(-c2nc(C)nn2-c2cccc(C(=O)NCCCOc3ccccc3)c2)cc1`, the negative logarithm of the IC50 (pIC50) was 5.51 with PANC-1 [1] and 5.45 with PANC-1 [2].

Regarding `CCc1nc(-c2ccc(OC)cc2)n(-c2cncc(C(=O)NCCCCc3ccccc3)c2)n1`, in the data set with PANC-1 [1], the pIC50 was 5.79. For `CCc1nc(-c2cccc(C(=O)NCCCCc3ccccc3)n2)n(-c2ccc(OC)cc2)n1`, the pIC50 in the data set with PANC-1 [1] was 5.02. Consider `CC(=O)O[C@@]12CO[C@@H]1C[C@H](O)[C@@]1(C)C(=O)[C@H](O)C3=C(C)[C@@H](OC(=O)[C@H](O)[C@@H](NC(=O)OC(C)(C)C)c4ccccc4)C[C@@](O)([C@@H](OC(=O)c4ccccc4)[C@H]21)C3(C)C`, for which, in the data set on PANC-1 [5], the outcome was Active.

Consider `CCOc1ccc(-c2nc(CC)nn2-c2cccc(C(=O)NCCCCc3ccccc3)c2)cc1`, for which the negative-log IC50 (pIC50) with PANC-1 [1] was 4.77.

For `Nc1ccn([C@@H]2O[C@H](CO)[C@@H](O)C2(F)F)c(=O)n1` [GEMCITABINE], the pIC50 in the data set on PANC-1 [1] and in the data set on PANC-1 [2] was 6.80 each time. For the same compound, the survival at 25 mg/kg/day with PANC-1 [6] came out at 60%. For the same compound, the outcome in the data set on PANC-1 [7] was Active. In addition, the Activity entry in data set [8], in data set [9], in [10], in data set [11], in data set [12] and in [13] was “Non-Toxic” throughout. For the compound `CCc1nc(-c2ccc(OC)cn2)n(-c2cccc(C(=O)NCCCCc3ccccc3)c2)n1`, the pIC50 with PANC-1 [1] was 6.92; in the data set with PANC-1 [2] it was 6.82. With `COc1ccc(-n2nc(C)nc2-c2cccc(C(=O)NCCCCc3ccccc3)c2)cc1`, the pIC50 in the data set on PANC-1 [1] is 5.77. The same measure, in the same setting: the result for `COc1ccc(-c2nc(C)nn2-c2cccc(C(=O)NCCc3ccncc3)c2)cc1` reads less than 4.70.

For the compound `COc1ccccc1N1C(=O)CSC1c1cccc(C(=O)NCCc2ccc(Br)cc2)c1` (stereo not drawn), the negative logarithm of the IC50 (pIC50) is 6.41 with PANC-1 [1] and 6.27 in the data set on PANC-1 [2]. In the case of `COc1ccc(-c2nc(C)nn2-c2cccc(C(=O)NCCc3cccs3)c2)cc1`, the pIC50 in the data set with PANC-1 [1] is less than 4.70. Same read-out and setting: in the case of `COc1ccc(-c2nc(C(C)C)nn2-c2cccc(C(=O)NCCCCc3ccccc3)c2)cc1` it was less than 4.70; in that of `CCc1nc(-c2ccc(O)cc2)n(-c2cccc(C(=O)NCCCCc3ccccc3)c2)n1`, 6.66; in that of `COc1ccc(-c2nc(C)nn2-c2cccc(C(=O)NCCCc3ccc(Br)cc3)c2)cc1`, less than 4.70.

Turning to `CCc1nc(-c2ccc(OC)nc2)n(-c2cccc(C(=O)NCCCCc3ccccc3)c2)n1`, the pIC50 in the data set on PANC-1 [1] was 6.09. In the case of `COc1ccc(-c2nc(C)nn2-c2cccc(C(=O)NCCCCCc3ccccc3)c2)cc1`, the negative logarithm of the IC50 (pIC50) in the data set with PANC-1 [1] is less than 4.70.

As for `CCc1nc(-c2ccc(OC(F)(F)F)cc2)n(-c2cccc(C(=O)NCCCCc3ccccc3)c2)n1`, the negative-log IC50 (pIC50) with PANC-1 [1] is 6.19.
